Reference: ChEMBL document CHEMBL4732099, “ROS-responsive and multifunctional anti-Alzheimer prodrugs: Tacrine-ibuprofen hybrids via a phenyl boronate linker” (Eur J Med Chem, 2021)
Active and inactive are the calls of the source. The rule behind the calls is not given here.

What was measured:
SH-SY5Y [1] = test: Neuroprotective activity against H2O2-induced cytotoxicity in human SH-SY5Y cells assessed as cell viability at 20 uM preincubated for 6 hrs followed by H2O2 addition and measured after 24 hrs by MTT assay (reference value: 20%); format: functional; details: time 30 hrs, read-out: Activity
Acetylcholinesterase = Acetylcholinesterase (Electrophorus electricus, UniProt O42275); test: Inhibition of electric eel AChE using acetylthiocholine iodide as substrate preincubated for 5 mins followed by substrate addition and measured after 1 min in presence of H2O2 by Ellman's method
[2] = target: Acetylcholinesterase (Electrophorus electricus) (UniProt O42275); test: Inhibition of electric eel AChE at 10 uM using acetylthiocholine iodide as substrate preincubated for 5 mins followed by substrate addition and measured after 1 min by Ellman's method relative to control; details: time 6.0 min
SH-SY5Y [3] = test: Cytotoxicity against human SH-SY5Y cells assessed as reduction in cell viability at 7.81 to 31.25 uM measured after 72 hrs by MTT assay; format: cell-based; details: dose 7.81-31.25 µM
SH-SY5Y [4] = test: Neuroprotective activity against H2O2-induced cytotoxicity in human SH-SY5Y cells assessed as cell viability at 5 uM preincubated for 6 hrs followed by H2O2 addition and measured after 24 hrs by MTT assay (reference value: 20%); format: functional; details: time 30 hrs, read-out: Activity
[5] = Prodrug activation assessed as hydrolysis of benzyl ester bonds in presence of H2O2 by 1H-NMR analysis
SH-SY5Y [6] = test: Neuroprotective activity against H2O2-induced apoptosis in human SH-SY5Y cells assessed as reduction in Bax expression preincubated for 6 hrs followed by H2O2 addition and measured after 24 hrs by Western blot analysis; format: functional, cell-based; details: dose 5-10 µM, time 30.0 hrs
BV-2 [7] = test: Antiinflammatory activity in mouse BV-2 cells assessed as reduction in LPS-induced TNFalpha mRNA expression preincubated for 6 hrs followed by LPS stimulation and measured after 24 hrs RT-qPCR analysis; format: functional, cell-based; details: dose 5-10 µM, time 30.0 hrs
BV-2 [8] = test: Antiinflammatory activity in mouse BV-2 cells assessed as reduction in LPS-induced IL1beta mRNA expression preincubated for 6 hrs followed by LPS stimulation and measured after 24 hrs RT-qPCR analysis; format: functional, cell-based; details: dose 5-10 µM, time 30.0 hrs
SH-SY5Y [9] = test: Neuroprotective activity against H2O2-induced apoptosis in human SH-SY5Y cells assessed as increase in Bcl-2 expression preincubated for 6 hrs followed by H2O2 addition and measured after 24 hrs by Western blot analysis; format: functional, cell-based; details: dose 5-10 µM, time 30.0 hrs
Rattus norvegicus [10] = test: Cognitive enhancing effect in Sprague-Dawley rat model of amyloid beta (25 to 35) peptide-induced memory impairment assessed as reduction in escape latency time at 0.9 mg per 100 g, […] qd for 4 weeks administered via gavage and measured after 4 to 5 days by Morris water maze test; format: functional, organism-based; details: time 32-33 day
SH-SY5Y [11] = test: Neuroprotective activity against H2O2-induced apoptosis in human SH-SY5Y cells assessed as reduction in cleaved caspase-3 expression preincubated for 6 hrs followed by H2O2 addition and measured after 24 hrs by Western blot analysis; format: functional, cell-based; details: dose 5-10 µM, time 30.0 hrs
SH-SY5Y [12] = test: Neuroprotective activity against H2O2-induced apoptosis in human SH-SY5Y cells assessed as necrotic cells at 10 uM preincubated for 6 hrs followed by H2O2 addition and measured after 24 hrs by annexin V FITC/propidium iodide staining based flow cytometry (reference value: 44.3%); format: functional; details: time 30 hrs
HepG2 = test: Hepatotoxicity in human HepG2 cells assessed as increase in ROS accumulation by measuring increase in green fluorescence at 25 to 50 uM measured after 24 hrs by ROS tracker based laser confocal microscopic analysis; format: toxicity, cell-based; details: hepg2, 24 h, dose 25-50 µM
BV-2 [13] = test: Antiinflammatory activity in mouse BV-2 cells assessed as fold change in LPS-induced IL1beta mRNA expression at 10 uM preincubated for 6 hrs followed by LPS stimulation and measured after 24 hrs RT-qPCR analysis (reference value: 3.68 +/- 0.02); format: functional; details: time 30 hrs
BV-2 [14] = test: Antiinflammatory activity in mouse BV-2 cells assessed as fold change in LPS-induced TNFalpha mRNA expression at 10 uM preincubated for 6 hrs followed by LPS stimulation and measured after 24 hrs RT-qPCR analysis (reference value: 3.86 +/- 0.25); format: functional; details: time 30 hrs
SH-SY5Y [15] = test: Induction of apoptosis in human SH-SY5Y cells assessed as late apoptotic cells at 10 uM incubated for 24 hrs by annexin V FITC/propidium iodide staining based flow cytometry (reference value: […]); format: cell-based
in vitro = details: human, SH-SY5Y cells
BV-2 [16] = test: Antiinflammatory activity in mouse BV-2 cells assessed as fold change in LPS-induced TNFalpha mRNA expression at 5 uM preincubated for 6 hrs followed by LPS stimulation and measured after 24 hrs RT-qPCR analysis (reference value: 3.86 +/- 0.25); format: functional; details: time 30 hrs
SH-SY5Y [17] = test: Neuroprotective activity against H2O2-induced apoptosis in human SH-SY5Y cells assessed as early apoptotic cells at 10 uM preincubated for 6 hrs followed by H2O2 addition and measured after 24 hrs by annexin V FITC/propidium iodide staining based flow cytometry (reference value: 0.9%); format: functional; details: time 30 hrs
SH-SY5Y [18] = test: Cytotoxicity against human SH-SY5Y cells assessed as reduction in cell viability at 31.25 uM measured after 72 hrs by MTT assay; format: cell-based
SH-SY5Y [19] = test: Neuroprotective activity against H2O2-induced apoptosis in human SH-SY5Y cells assessed as late apoptotic cells at 5 uM preincubated for 6 hrs followed by H2O2 addition and measured after 24 hrs by annexin V FITC/propidium iodide staining based flow cytometry (reference value: 13.1%); format: functional; details: time 30 hrs
BV-2 [20] = test: Antiinflammatory activity in mouse BV-2 cells assessed as reduction in LPS-induced ROS level at 10 uM preincubated for 6 hrs followed by LPS stimulation and measured after 18 hrs by DCFH-DA staining based laser confocal microscopic analysis; format: functional, cell-based
SH-SY5Y [21] = test: Neuroprotective activity against H2O2-induced apoptosis in human SH-SY5Y cells assessed as early apoptotic cells at 5 uM preincubated for 6 hrs followed by H2O2 addition and measured after 24 hrs by annexin V FITC/propidium iodide staining based flow cytometry (reference value: 0.9%); format: functional; details: time 30 hrs
SH-SY5Y [22] = test: Neuroprotective activity against H2O2-induced apoptosis in human SH-SY5Y cells assessed as late apoptotic cells at 10 uM preincubated for 6 hrs followed by H2O2 addition and measured after 24 hrs by annexin V FITC/propidium iodide staining based flow cytometry (reference value: 13.1%); format: functional; details: time 30 hrs
SH-SY5Y [23] = test: Induction of apoptosis in human SH-SY5Y cells assessed as necrotic cells at 10 uM incubated for 24 hrs by annexin V FITC/propidium iodide staining based flow cytometry (reference value: 0.8 %); format: cell-based
SH-SY5Y [24] = test: Neuroprotective activity against H2O2-induced apoptosis in human SH-SY5Y cells assessed as viable cells at 10 uM preincubated for 6 hrs followed by H2O2 addition and measured after 24 hrs by annexin V FITC/propidium iodide staining based flow cytometry (reference value: 41.7%); format: functional; details: time 30 hrs, read-out: Activity
SH-SY5Y [25] = test: Neuroprotective activity against H2O2-induced apoptosis in human SH-SY5Y cells assessed as reduction in cells with red fluorescence at 10 uM preincubated for 6 hrs followed by H2O2 addition and measured after 24 hrs by calcein AM/propidium iodide staining based laser confocal microscope; format: functional, cell-based; details: time 30.0 hrs
SH-SY5Y [26] = test: Induction of apoptosis in human SH-SY5Y cells assessed as early apoptotic cells at 10 uM incubated for 24 hrs by annexin V FITC/propidium iodide staining based flow cytometry (reference value: […]); format: cell-based
BV-2 [27] = test: Antiinflammatory activity in mouse BV-2 cells assessed as fold change in LPS-induced IL1beta mRNA expression at 5 uM preincubated for 6 hrs followed by LPS stimulation and measured after 24 hrs RT-qPCR analysis (reference value: 3.68 +/- 0.02); format: functional; details: time 30 hrs
SH-SY5Y [28] = test: Neuroprotective activity against H2O2-induced apoptosis in human SH-SY5Y cells assessed as viable cells at 5 uM preincubated for 6 hrs followed by H2O2 addition and measured after 24 hrs by annexin V FITC/propidium iodide staining based flow cytometry (reference value: 41.7%); format: functional; details: time 30 hrs, read-out: Activity
SH-SY5Y [29] = test: Neuroprotective activity against H2O2-induced apoptosis in human SH-SY5Y cells assessed as increase in viable cells preincubated for 6 hrs followed by H2O2 addition and measured after 24 hrs by annexin V FITC/propidium iodide staining based flow cytometry; format: functional, cell-based; details: dose 5-10 µM, time 30.0 hrs
Rattus norvegicus [30] = test: Cognitive enhancing effect in Sprague-Dawley rat model of amyloid beta (25 to 35) peptide-induced memory impairment assessed as time spent in target platform at 0.9 mg per 100 g, […] qd for 4 weeks administered via gavage and measured after 5 days by Morris water maze test (reference value: 0.5 sec); format: functional; details: time 33 day
SH-SY5Y [31] = test: Neuroprotective activity against H2O2-induced apoptosis in human SH-SY5Y cells assessed as necrotic cells at 5 uM preincubated for 6 hrs followed by H2O2 addition and measured after 24 hrs by annexin V FITC/propidium iodide staining based flow cytometry (reference value: 44.3%); format: functional; details: time 30 hrs
Rattus norvegicus [32] = test: Cognitive enhancing effect in Sprague-Dawley rat model of amyloid beta (25 to 35) peptide-induced memory impairment assessed as number of platform crossing at 0.9 mg per 100 g, […] qd for 4 weeks administered via gavage and measured after 5 days by Morris water maze test (reference value: 0.4); format: functional; details: time 33 day
SH-SY5Y [33] = test: Cytotoxicity against human SH-SY5Y cells assessed as reduction in cell viability at 7.81 to 15.62 uM measured after 72 hrs by MTT assay; format: cell-based; details: dose 7.81-15.62 µM

Acetylcholinesterase, sequence (O42275 whole entry): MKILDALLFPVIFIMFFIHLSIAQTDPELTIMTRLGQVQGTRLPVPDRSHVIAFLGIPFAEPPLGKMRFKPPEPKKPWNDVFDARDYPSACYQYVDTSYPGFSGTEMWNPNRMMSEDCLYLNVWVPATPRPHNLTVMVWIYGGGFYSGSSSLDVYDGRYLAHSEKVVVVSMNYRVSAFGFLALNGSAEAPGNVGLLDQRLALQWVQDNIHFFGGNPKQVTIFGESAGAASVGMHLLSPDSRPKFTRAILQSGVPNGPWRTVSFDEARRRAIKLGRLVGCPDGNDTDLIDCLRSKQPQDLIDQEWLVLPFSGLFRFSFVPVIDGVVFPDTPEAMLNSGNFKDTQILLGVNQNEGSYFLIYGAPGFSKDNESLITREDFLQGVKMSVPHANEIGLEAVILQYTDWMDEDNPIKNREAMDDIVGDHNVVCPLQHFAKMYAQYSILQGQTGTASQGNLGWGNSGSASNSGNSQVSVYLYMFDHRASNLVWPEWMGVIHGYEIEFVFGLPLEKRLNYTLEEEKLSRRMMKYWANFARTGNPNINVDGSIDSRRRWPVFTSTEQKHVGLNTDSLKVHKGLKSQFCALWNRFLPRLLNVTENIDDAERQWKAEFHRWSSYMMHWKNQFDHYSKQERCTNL
Acetylcholinesterase (Electrophorus electricus), sequence (O42275 24-633 limits assumed): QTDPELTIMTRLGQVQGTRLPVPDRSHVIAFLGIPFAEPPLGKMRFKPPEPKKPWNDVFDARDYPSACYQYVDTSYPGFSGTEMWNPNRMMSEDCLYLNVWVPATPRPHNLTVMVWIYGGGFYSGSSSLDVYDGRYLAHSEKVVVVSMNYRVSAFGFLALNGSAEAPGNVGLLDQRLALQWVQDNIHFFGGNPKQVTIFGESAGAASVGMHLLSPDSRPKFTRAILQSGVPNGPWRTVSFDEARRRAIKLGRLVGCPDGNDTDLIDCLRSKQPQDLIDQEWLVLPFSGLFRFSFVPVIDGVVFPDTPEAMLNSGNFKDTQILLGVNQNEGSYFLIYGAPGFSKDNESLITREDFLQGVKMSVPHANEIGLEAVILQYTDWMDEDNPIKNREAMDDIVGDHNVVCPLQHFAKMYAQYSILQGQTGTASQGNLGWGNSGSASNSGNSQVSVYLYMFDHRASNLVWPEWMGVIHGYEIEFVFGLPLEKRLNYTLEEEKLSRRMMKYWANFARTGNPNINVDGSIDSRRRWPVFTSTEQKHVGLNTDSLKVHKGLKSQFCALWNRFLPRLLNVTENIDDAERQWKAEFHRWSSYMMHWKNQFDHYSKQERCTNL

Cc1cc(COC(=O)NCCCNc2c3c(nc4ccccc24)CCCC3)c(OCc2ccc(B3OC(C)(C)C(C)(C)O3)cc2)c(COC(=O)C(C)c2ccc(CC(C)C)cc2)c1 (stereo not given)
viability at 20 µM (SH-SY5Y [1]): > 80%
IC50 (Acetylcholinesterase): 302 nM
inhibition [2]: 32.9%
Activity (SH-SY5Y [3]): Toxic
viability at 5 µM (SH-SY5Y [4]): > 50%

Cc1cc(COC(=O)NCCCCCCNc2c3c(nc4ccccc24)CCCC3)c(OCc2ccc(B3OC(C)(C)C(C)(C)O3)cc2)c(COC(=O)C(C)c2ccc(CC(C)C)cc2)c1 (stereo not given)
Drug metabolism [5]: Metabolite_Detected
Activity (SH-SY5Y [6]): Dose-dependent effect
Activity (BV-2 [7]): Dose-dependent effect
Activity (BV-2 [8]): Dose-dependent effect
Activity (SH-SY5Y [9]): Dose-dependent effect
Activity (Rattus norvegicus [10]): Active
Activity (SH-SY5Y [11]): Dose-dependent effect
Activity (SH-SY5Y [12]): 7.3%
Activity (HepG2): Toxic
viability at 20 µM (SH-SY5Y [1]): > 80%
fold change (FC) (BV-2 [13]): 0.86
IC50 (Acetylcholinesterase): 39.2 nM
fold change (FC) (BV-2 [14]): 1.2
Activity (SH-SY5Y [15]): 2.57%
viability at 24 h, 5 µM (in vitro): 90.4%
fold change (FC) (BV-2 [16]): 1.6
inhibition [2]: 47.2%
Activity (SH-SY5Y [17]): 1.17%
Activity (SH-SY5Y [18]): Non-Toxic
viability at 5 µM (SH-SY5Y [4]): > 50%
Activity (SH-SY5Y [19]): 10.5%
Activity (BV-2 [20]): Active
Activity (SH-SY5Y [21]): 1.75%
Activity (SH-SY5Y [22]): 4.97%
Activity (SH-SY5Y [23]): 2.48%
viability at 10 µM (SH-SY5Y [24]): 86.6%
Activity (SH-SY5Y [25]): Active
Activity (SH-SY5Y [26]): 1.65%
fold change (FC) (BV-2 [27]): 1.36
viability at 5 µM (SH-SY5Y [28]): 73.7%
Activity (SH-SY5Y [29]): Dose-dependent effect
Time (Rattus norvegicus [30]): 2.2 s
Activity (SH-SY5Y [31]): 14.1%
Activity (Rattus norvegicus [32]): 4.2

Cc1cc(COC(=O)NCCNc2c3c(nc4ccccc24)CCCC3)c(OCc2ccc(B3OC(C)(C)C(C)(C)O3)cc2)c(COC(=O)C(C)c2ccc(CC(C)C)cc2)c1 (stereo not given)
viability at 20 µM (SH-SY5Y [1]): > 80%
IC50 (Acetylcholinesterase): 608 nM
Activity (SH-SY5Y [33]): Non-Toxic
inhibition [2]: 28.2%
Activity (SH-SY5Y [18]): Toxic
viability at 5 µM (SH-SY5Y [4]): > 50%
